Source: US6713265B1 (Synaptic Pharmaceutical Corporation, priority 1999, dated 2004)

Tests used:
[1] = test system: NPY-induced feeding behavior; assay: NPY-induced food intake in satiated rats; format: in vivo, rat; settings: compound 30 mg/kg i.p. then 300 pmole NPY i.c.v., 4 hours, mean ± S.E.M.
Procedure: For these determinations food intake may be measured in normal satiated rats after intracerebroventricular application (i.c.v.) of NPY in the presence or absence of the test compound. Male Sprague Dawley rats (Ciba-Geigy AG, Sisseln, Switzerland) weighing between 180 g and 220 g are used for all experiments. The rats are individually housed in stainless steel cages and maintained on an 11:13 h light-dark cycle (lights off at 18:00 h) at a controlled temperature of 21-23° C. at all times. Water and food (NAFAG lab chow pellets NAFAG, Gossau, Switzerland) are available ad libidum.
Rats under pentobarbital anesthesia are stereotaxically implanted with a stainless steel guide cannula targeted at the right lateral ventricle. Stereotaxic coordinates, with the incisor bar set −2.0 mm below interaural line, are: −0.8 mm anterior and +1.3 mm lateral to bregma. The guide cannula is placed on the dura. Injection cannulas extend the guide cannulas −3.8 mm ventrally to the skull surface. Animals are allowed at least 4 days of recovery postoperatively before being used in the experiments. Cannula placement is checked postoperatively by testing all rats for their drinking response to a 50. ng intracerebroventricular (i.c.v.) injection of angiotensin II. Only rats which drink at least 2.5 ml of water within 30 min. after angiotensin II injection are used in the feeding studies.
All injections are made in the morning 2 hours after light onset. Peptides are injected in artificial cerebrospinal fluid (ACSF) in a volume of 5 μl. ACSF contains: NaCl 124 mM, KCl 3.75 mM, CaCl2 2.5 mM, MgSO4 2.0 mM, KH2PO4 0.22 mM, NaHCO3 26 mM and glucose 10 mM. Porcine-NPY (p-NPY) are dissolved in artificial cerebrospinal fluid (ACS). For i.c.v. injection the test compounds are preferably dissolved in DMSO/water (10%, v/v). The vehicle used for intraperitoneal (i.p.), subcutaneous (s.c.) or oral (p.o.) delivery of compounds is preferably water, physiological saline or DMSO/water (10% v/v), or cremophor/water (20% v/v), respectively.
Animals which are treated with both test compounds and porcine-NPY are treated first with the test compound.
Food intake may be measured by placing preweighed pellets into the cages at the time of NPY injection. Pellets are then removed from the cage subsequently at each selected time point and replaced with a new set of preweighed pellets. The food intake of animals treated with test compound may be calculated as a percentage of the food intake of control animals i.e., animals treated with vehicle. Alternatively, food intake for each group of animals subjected to a particular experimental condition may be expressed as the mean±S.E.M. Statistical analysis is performed by analysis of variance using the Student-Newman-Keuls test.
Food intake is reported as the mean±S.E.M. intake for a group of animals.

[2] = target: T1, α2c (Homo sapiens, UniProt P18825); assay: Binding at cloned human α2c adrenergic receptor; settings: cloned human receptor
T1 sequence (P18825 1-462): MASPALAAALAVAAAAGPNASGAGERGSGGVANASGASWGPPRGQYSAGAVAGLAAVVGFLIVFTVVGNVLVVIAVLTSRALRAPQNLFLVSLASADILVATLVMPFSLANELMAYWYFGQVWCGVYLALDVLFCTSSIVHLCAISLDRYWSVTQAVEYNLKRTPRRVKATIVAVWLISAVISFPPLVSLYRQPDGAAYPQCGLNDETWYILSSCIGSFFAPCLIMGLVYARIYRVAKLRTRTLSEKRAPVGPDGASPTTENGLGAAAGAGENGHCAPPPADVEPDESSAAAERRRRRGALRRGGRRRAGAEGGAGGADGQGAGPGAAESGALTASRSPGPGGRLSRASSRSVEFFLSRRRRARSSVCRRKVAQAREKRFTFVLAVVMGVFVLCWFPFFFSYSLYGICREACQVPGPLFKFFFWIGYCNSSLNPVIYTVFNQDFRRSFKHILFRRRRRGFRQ

SMILES	Food intake, NPY + compound [1] [g]	pKi α2c [2]
Cl.O=S(=O)(NC[C@H]1CC[C@H](CNCC2CCc3ccccc3C2)CC1)c1cccc2ccccc12 (mixture of isomers) [Compound 19]	1.5 ± 0.6	–
Cl.O=[N+]([O-])c1ccccc1S(=O)(=O)NC[C@H]1CC[C@H](CNCC2CCc3ccccc3C2)CC1 (mixture of isomers) [Compound 20]	–	7.39
Cl.Cl.Nc1ccccc1S(=O)(=O)NC[C@H]1CC[C@H](CNCC2CCc3ccccc3C2)CC1 (mixture of isomers) [Compound 22]	–	7.15
